From publication PMC4542541, “Flexibility and extracellular opening determine the interaction between ligands and insect sulfakinin receptors” (Scientific Reports, 2015)
Entries after “also recorded” stand apart in the source; their conditions may differ.

Columns and labels:
TcSKR1 = experiment: Receptor activation bioassay, CRE-luciferase reporter in Sf9-TcSKR1 cells; assay type: cell-based, Tribolium castaneum; parameters: key to peptide marked active on TcSKR1: *: A peptide is active on the sulfakinin receptor (SKR); details: for peptide marked active on TcSKR1: 10 μM, one-way ANOVA with Dunnett's posttest vs nsSK and medium control; for activity on TcSKR1 in words: compared to parental peptide nsSK, Sf9 cell-based reporter; for relative activity (% nsSK) TcSKR1: peptide 10 μM, Sf9-TcSKR1 cells transiently transfected with pGL4.29[luc2P/CRE/Hygro], 5 h at 27 °C, Bright-Glo luminescence, activity related to nsSK, mean ± SEM, at least two biological replicates, SEM
Procedure: (§1) Sf9 cells (Spodoptera frugiperda) and Sf9-TcSKR1 and Sf9-TcSKR2 cells generated previously[21] were routinely cultured in SF-900™ II SFM medium (Life Technologies, Merelbeke, Belgium) at 27 °C in darkness. The medium for Sf9-TcSKR1 and Sf9-TcSKR2 was supplemented with 20 μg/ml of puromycin (Life Technologies, Merelbeke, Belgium) to maintain the stable expression of TcSKRs.
(§2) The reporter vector pGL4.29[luc2P/CRE/Hygro] (CRE; Promega, Leiden, the Netherlands) was applied here and it has a cAMP (cyclic adenosine 3′, 5′-cyclic monophosphate) response element upstream the reporter gene luciferase, through which the cAMP signaling regulates the transcription of luciferase proportionally. Thus, the readout of the luminescence corresponds to the extent to which the expressed TcSKR is activated in Sf9 cells. The SK-related peptides (Table 1) were tested at concentrations of 0.1, 1 and 10 μM.
(§3) Sf9, Sf9-TcSKR1 and Sf9-TcSKR2 cells were all transiently transfected with pGL4.29[luc2P/CRE/Hygro] using ESCORT™ IV transfection reagent (Sigma-Aldrich, Bornem, Belgium) following the manufacturer’s instruction. Medium was supplemented with 200 μg/ml hygromycin (Life Technologies, Merelbeke, Belgium) 24 h post-transfection. The transient cells (Sf9-CRE, Sf9-TcSKR1-CRE, Sf9-TcSKR2-CRE) were seeded at 20,000 cells per well in white 96-well plates (Greiner Bio-One, Frickenhausen, Germany). After 12 h, cells had attached to the well bottom and the medium was replaced by fresh medium containing peptide of designated concentrations. Each concentration was tested in three replicates and the entire assay was repeated at least twice. Two kinds of negative control were included. […] Second, Sf9-CRE cells were used as a negative control to eliminate the potential internal factors that were activated by peptide samples. Cells were incubated with a peptide for 5 h at 27 °C and then Bright-Glo™ luciferase assay (Promega, Leiden, the Netherlands) was carried out according to the manufacturer’s instruction. Light emission, resulting from the luciferase activity was measured for 10 seconds per well using an Infinite® 200 PRO microplate reader (Tecan, Mechelen, Belgium).
(§4) In the receptor activation bioassay, the activity of a peptide on TcSKR was represented by the increased luminescence units, calculated with the following formula: activitypeptide = (luminescencepeptide – luminescencemedium)/luminescencemedium × 100. The activity of SK-related peptide was compared to that of nsSK and medium control by one-way analysis of variance with the Dunnett’s posttest in GraphPad Prism version 5.00 (GraphPad Software, La Jolla, CA). The activity of a SK-related peptide was also related to the activity of nsSK as a percentage value, calculated with the formula: relative activity of peptide (% nsSK) = activitypeptide/activitynsSK × 100.

TcSKR2 [1] = experiment: Receptor activation bioassay, CRE-luciferase reporter in Sf9-TcSKR2 cells; assay type: cell-based, Tribolium castaneum; parameters: key to peptide marked active on TcSKR2: *: A peptide is active on the sulfakinin receptor (SKR); details: for peptide marked active on TcSKR2: 10 μM, one-way ANOVA with Dunnett's posttest vs nsSK and medium control; for activity on TcSKR2 in words: compared to parental peptide nsSK, Sf9 cell-based reporter; for relative activity (% nsSK) TcSKR2: peptide 10 μM, Sf9-TcSKR2 cells transiently transfected with pGL4.29[luc2P/CRE/Hygro], 5 h at 27 °C, Bright-Glo luminescence, activity related to nsSK, mean ± SEM, at least two biological replicates, SEM
Procedure: as §1, §2, §3, §4

TcSKR2 [2] = details: previous experiments; cited from earlier work
From the text: As a satiety factor, insect SK signaling provides insights into the development of new pest control strategies. […] This lead to a hypothesis that sSK and nsSK interact with the two TcSKRs differently. Therefore, understanding the interaction of ligand and receptor will promote the ...

Substance	peptide marked active on TcSKR1 (TcSKR1)	activity on TcSKR1 in words (TcSKR1)	relative activity (% nsSK) TcSKR1 (TcSKR1) [% nsSK]	peptide marked active on TcSKR2 (TcSKR2 [1])	activity on TcSKR2 in words (TcSKR2 [1])	relative activity (% nsSK) TcSKR2 (TcSKR2 [1]) [% nsSK]	potency of sSK relative to nsSK to activate TcSKR2 (TcSKR2 [2])
DDY(SO3H)GHMRF-NH2 [Peptide 1658, sulfated SK-related peptide DDY(SO3H)GHMRF-NH2]	*	retention of activity	64.8 ± 8.4	*	much more active than nsSK; also recorded: retention of activity	516.8 ± 50.6	–
DDYGHMRF-NH2 [Peptide 2009, truncated nsSK, DDYGHMRF-NH2]	–	–	7.8 ± 11.8	–	–	1.2 ± 13.7	–
DYGHMRF-NH2 [Peptide 2010, truncated nsSK, DYGHMRF-NH2]	–	–	28.1 ± 15.6	–	–	8.6 ± 9.1	–
EADY(SO3H)GHNleRF-NH2 [Peptide 1591-1, sulfated SK-related peptide EADY(SO3H)GHNleRF-NH2]	*	retention of activity	82.6 ± 2.0	*	much more active than nsSK; also recorded: retention of activity	113.7 ± 60.5	–
FDDAGHMRF-NH2 [Peptide 2008, alanine-substituted nsSK, …-NH2]	–	inactive	5.3 ± 1.5	–	inactive	21.5 ± 10.7	–
FDDY(SO3H)GHMRF-NH2 [sSK, sulfated sulfakinin peptide FDDY(SO3H)GHMRF-NH2]	–	–	–	–	–	–	1,000–10,000 times
FDDYAHMRF-NH2 [Peptide 2007, alanine-substituted nsSK, …-NH2]	–	kept the activity on TcSKR1 to some extent	55.0 ± 7.1	–	–	8.5 ± 5.3	–
FDDYGAMRF-NH2 [Peptide 2006, alanine-substituted nsSK, …-NH2]	–	inactive	0.5 ± 0.7	–	inactive	4.0 ± 9.9	–
FDDYGHARF-NH2 [Peptide 2005, alanine-substituted nsSK, …-NH2]	–	inactive	−0.8 ± 4.4	–	inactive	11.9 ± 2.7	–
FDDYGHMAF-NH2 [Peptide 2004, alanine-substituted nsSK, …-NH2]	–	inactive	58.0 ± 22.0	–	inactive	18.7 ± 10.2	–
FDDYGHMRA-NH2 [Peptide 2003, alanine-substituted nsSK, …-NH2]	–	inactive	−2.0 ± 3.4	–	inactive	−3.5 ± 5.9	–
FDDYGHMRF-NH2 [nsSK, nonsulfated sulfakinin peptide …-NH2, parental peptide of the series, reference compound]	*	–	100.0 ± 0.0	*	–	100.0 ± 0.0	–
GHMRF-NH2 [Peptide 2053, truncated nsSK, GHMRF-NH2]	–	–	0.6 ± 0.1	–	–	−4.8 ± 0.1	–
HMRF-NH2 [Peptide 2052, truncated nsSK, HMRF-NH2]	–	–	6.8 ± 0.2	–	–	1.8 ± 0.1	–
SDDY(SO3H)GHMRF-NH2 [Peptide 1835, sulfated SK-related peptide SDDY(SO3H)GHMRF-NH2]	*	retention of activity	76.5 ± 7.6	*	much more active than nsSK; also recorded: retention of activity	645.7 ± 126.6	–
YGHMRF-NH2 [Peptide 2011, truncated nsSK, YGHMRF-NH2]	–	–	2.8 ± 2.5	–	–	11.7 ± 13.5	–
